Experimental data as given in BindingDB's records for doi:10.7270/Q2DF6PMF (Nmmlsc, 2007).

molecular target: T1, N-formyl peptide receptor 2 (Homo sapiens, UniProt P25090); test: FPRL1 binding inhibitor potency, dose response, cell-based, FPR counter-screen, fluorescent ligand (AID 520); details: not given
T1 sequence (P25090 whole entry): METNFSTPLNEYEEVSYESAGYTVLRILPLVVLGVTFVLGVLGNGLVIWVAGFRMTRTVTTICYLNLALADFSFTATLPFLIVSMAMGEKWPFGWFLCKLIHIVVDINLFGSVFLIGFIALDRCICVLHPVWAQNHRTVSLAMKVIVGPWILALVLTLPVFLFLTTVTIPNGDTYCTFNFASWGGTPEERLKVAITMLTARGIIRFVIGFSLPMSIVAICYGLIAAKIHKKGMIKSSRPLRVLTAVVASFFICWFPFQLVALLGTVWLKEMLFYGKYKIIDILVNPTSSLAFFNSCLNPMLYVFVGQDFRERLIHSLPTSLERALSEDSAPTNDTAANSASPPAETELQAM

| Compound | IC50 | Ki |
| --- | --- | --- |
| Cc1[nH]n2c(=O)c3c(nc2c1-c1ccccc1)CCC3 [SMR000082027] | > 66.7 µM |  |
| O=C1C(=O)N(CCN2CCOCC2)C(c2ccccc2)C1C(=O)c1cccs1 (stereo not drawn) [1-(2-morpholin-4-ylethyl)-4-oxidanyl-2-phenyl-3-thiophen-2-ylcarbonyl-2H-pyrrol-5-one] | > 66.7 µM | > 40.3 µM |
| Clc1ccc(C2CC(c3cccs3)n3ncnc3N2)cc1Cl (stereo not drawn) [5-(3,4-dichlorophenyl)-7-(2-thienyl)-1,5,6,7-tetrahydro-[1,2,4]triazolo[1,5-a]pyrimidine] | > 66.7 µM |  |
| CCCOc1ccc(C2C(C(=O)c3ccco3)C(=O)C(=O)N2CCCn2ccnc2)cc1 (stereo not drawn) [3-(furan-2-carbonyl)-4-hydroxy-1-(3-imidazol-1-ylpropyl)-2-(4-propoxyphenyl)-2H-pyrrol-5-one] | > 66.7 µM | > 40.3 µM |
| CCCc1cc(=O)n2[nH]c(C)c(-c3ccccc3)c2n1 | > 66.7 µM |  |
| Cc1oc2cc(O)cc(O)c2c(=O)c1-c1ccc2c(c1)OCCCO2 [3-(3,4-dihydro-2H-1,5-benzodioxepin-7-yl)-2-methyl-5,7-bis(oxidanyl)chromen-4-one] | > 66.7 µM |  |
| CCCCc1c(O)n(-c2ccccc2)n(-c2ccccc2)c1=O [3,5-Dioxo-1,2-diphenyl-4-n-butylpyrazolidine] | > 66.7 µM | > 40.3 µM |
| CCOC(=O)Cc1cc(=O)n2[nH]c(C)c(-c3ccc(Cl)cc3)c2n1 [ethyl 2-[3-(4-chlorophenyl)-2-methyl-7-oxo-1H-pyrazolo[1,5-a]pyrimidin-5-yl]acetate] | > 66.7 µM |  |
| COc1cccc2cc(C(=O)C3C(=O)C(=O)N(Cc4ccco4)C3c3cccnc3)oc12 (stereo not drawn) [1-(2-furanylmethyl)-4-hydroxy-3-[(7-methoxy-2-benzofuranyl)-oxomethyl]-2-(3-pyridinyl)-2H-pyrrol-5-one] | > 66.7 µM | > 40.3 µM |
| C=CCOc1ccc(C2C(C(=O)c3ccco3)C(=O)C(=O)N2Cc2cccnc2)cc1 (stereo not drawn) [3-(furan-2-carbonyl)-4-hydroxy-2-(4-prop-2-enoxyphenyl)-1-(pyridin-3-ylmethyl)-2H-pyrrol-5-one] | > 66.7 µM | > 40.3 µM |
| Cc1sc(NC(=O)C2CCCCC2C(=O)O)c(C(N)=O)c1-c1ccc(C(C)(C)C)cc1 (stereo not drawn) [2-({[3-(aminocarbonyl)-4-(4-tert-butylphenyl)-5-methyl-2-thienyl]amino}carbonyl)cyclohexanecarboxylic acid] | > 66.7 µM |  |
| CCC(CCC(=O)Nc1cccc(C(=O)O)c1)C(=O)O (stereo not drawn) [3-(4-carboxyhexanoylamino)benzoic acid] | > 66.7 µM |  |
| CCC(CC)C(=O)Nc1c2cnn(-c3ccccc3)c2nc(=O)n1-c1ccccc1 [2-ethyl-N-(6-keto-1,5-diphenyl-pyrazolo[3,4-d]pyrimidin-4-yl)butyramide] | > 66.7 µM |  |
| COc1ccc(C(=O)C2C(=O)C(=O)N(CCN3CCOCC3)C2c2ccc(C)cc2)cc1 (stereo not drawn) [(4Z)-4-[(4-methoxyphenyl)-oxidanyl-methylidene]-5-(4-methylphenyl)-1-(2-morpholin-4-ylethyl)pyrrolidine-2,3-dione] | > 66.7 µM | > 40.3 µM |
| Cc1c(CNCc2cccs2)c(C(=O)O)c(C)n1Cc1ccccc1 [1-benzyl-2,5-dimethyl-4-[(2-thenylamino)methyl]pyrrole-3-carboxylic acid] | > 66.7 µM |  |
| Cc1ccc(C2C(C(=O)c3cnn(-c4ccccc4)c3C)C(=O)C(=O)N2CCN2CCOCC2)o1 (stereo not drawn) [(4Z)-4-[hydroxy-(5-methyl-1-phenyl-4-pyrazolyl)methylidene]-5-(5-methyl-2-furanyl)-1-[2-(4-morpholinyl)ethyl]pyrrolidine-2,3-dione] | > 66.7 µM | > 40.3 µM |
| Nc1ccc(Nc2ccccc2)cc1 | > 66.7 µM |  |
| Cc1ccc(C(=O)C2C(=O)C(=O)N(Cc3ccccc3)C2c2cccnc2)o1 (stereo not drawn) [1-benzyl-3-hydroxy-4-[(5-methylfuran-2-yl)carbonyl]-5-(pyridin-3-yl)-2,5-dihydro-1H-pyrrol-2-one] | > 66.7 µM | > 40.3 µM |
| Cc1nc(C)c(C(=O)C2C(=O)C(=O)N(CCCn3ccnc3)C2c2ccc(Cl)cc2)s1 (stereo not drawn) [2-(4-chlorophenyl)-3-(2,4-dimethyl-1,3-thiazole-5-carbonyl)-4-hydroxy-1-(3-imidazol-1-ylpropyl)-2H-pyrrol-5-one] | > 66.7 µM | > 40.3 µM |
| OCc1nc2ccccc2n1CC(O)Cn1ccc2ccccc21 (stereo not drawn) [1-[2-(hydroxymethyl)-1-benzimidazolyl]-3-(1-indolyl)-2-propanol] | > 66.7 µM |  |
| Cc1c(C(=O)NC2CCCc3ccccc32)oc2ccc(S(=O)(=O)N3CCOCC3)cc12 (stereo not drawn) [3-methyl-5-(4-morpholinylsulfonyl)-N-(1,2,3,4-tetrahydronaphthalen-1-yl)-2-benzofurancarboxamide] | > 66.7 µM |  |
| CC1Oc2ccccc2N(Cc2ccccc2Cl)C1=O (stereo not drawn) [4-(2-Chloro-benzyl)-2-methyl-4H-benzo[1,4]oxazin-3-one] | > 66.7 µM |  |
| CCOC(=O)c1cc(NC(=O)C2C3CCC(O3)C2C(=O)O)cc(C(=O)OCC)c1 (stereo not drawn) [MLS000521500] | > 66.7 µM |  |
| COc1ccc(-c2nc(-c3ccc(Br)o3)no2)cc1OC [3-(5-bromanylfuran-2-yl)-5-(3,4-dimethoxyphenyl)-1,2,4-oxadiazole] | > 66.7 µM |  |
| CCOc1cccc(C(=O)C2C(=O)C(=O)N(Cc3ccco3)C2c2ccncc2)c1 (stereo not drawn) [(4Z)-1-(2-furfuryl)-4-[hydroxy(m-phenetyl)methylene]-5-(4-pyridyl)pyrrolidine-2,3-quinone] | > 66.7 µM | > 40.3 µM |
| CSc1ccccc1NS(=O)(=O)c1ccccc1 [MLS000064343] | > 66.7 µM |  |

Continued, values first:

| IC50 | Ki | Compound |
| --- | --- | --- |
| > 66.7 µM |  | COc1ccc(NC(=O)C(c2ccc(C)cc2)N(C)C(=O)c2cnccn2)cc1 (stereo not drawn) [MLS000044155] |
| > 66.7 µM | > 40.3 µM | O=c1c(C23CC4CC(CC(C4)C2)C3)c(O)n(-c2ccccc2)n1-c1ccccc1 [MLS000526352] |
| > 66.7 µM | > 40.3 µM | Cc1ccc(C2c3c([nH]c(=S)[nH]c3=O)N=C3CC(C)(C)CC(=O)C32)cc1 (stereo not drawn) [8,8-dimethyl-5-(4-methylphenyl)-2-sulfanylidene-5,7,9,10-tetrahydro-1H-pyrimido[4,5-b]quinoline-4,6-dione] |
| > 66.7 µM |  | CCc1cc2c(=O)c(-c3nc4ccccc4n3C)c(COCC(=O)O)oc2cc1OC(=O)C(C)(C)C [2-[[7-(2,2-dimethyl-1-oxopropoxy)-6-ethyl-3-(1-methyl-2-benzimidazolyl)-4-oxo-1-benzopyran-2-yl]methoxy]acetic acid] |
| > 66.7 µM |  | CCOC(=O)Nc1ccc(OC)cc1S(=O)(=O)N1CCCCC1 [MLS000048808] |
| > 66.7 µM | > 40.3 µM | COCCN1C(=O)C(=O)C(C(=O)c2cccs2)C1c1ccccc1 (stereo not drawn) [1-(2-methoxyethyl)-4-oxidanyl-2-phenyl-3-thiophen-2-ylcarbonyl-2H-pyrrol-5-one] |
| > 66.7 µM |  | CCc1nn2c(=O)cc(CSc3nc4sc5c(c4c(=O)n3C)CCCC5)nc2s1 [2-[(2-ethyl-5-keto-[1,3,4]thiadiazolo[3,2-a]pyrimidin-7-yl)methylthio]-3-methyl-5,6,7,8-tetrahydrobenzothiopheno[2,3-d]pyrimidin-4-one] |
| > 66.7 µM | > 40.3 µM | Cc1nc2c(C)cccn2c1C(=O)C1C(=O)C(=O)N(CCN2CCOCC2)C1c1cccs1 (stereo not drawn) [(4E)-4-[(2,8-dimethyl-3-imidazo[1,2-a]pyridinyl)-hydroxymethylidene]-1-[2-(4-morpholinyl)ethyl]-5-thiophen-2-ylpyrrolidine-2,3-dione] |
| > 66.7 µM | > 40.3 µM | COc1cccc(C(=O)C2C(=O)C(=O)N(Cc3cccnc3)C2c2ccco2)c1 (stereo not drawn) [(4Z)-5-(2-furanyl)-4-[hydroxy-(3-methoxyphenyl)methylidene]-1-(3-pyridinylmethyl)pyrrolidine-2,3-dione] |
| > 66.7 µM | > 40.3 µM | O=C1C(=O)N(CCc2ccccc2)C(c2cccnc2)C1C(=O)c1ccco1 (stereo not drawn) [3-(furan-2-carbonyl)-4-hydroxy-1-(2-phenylethyl)-2-pyridin-3-yl-2H-pyrrol-5-one] |
| > 66.7 µM |  | O=C(NCc1cccnc1)C1c2ccccc2C(=O)N1C1CCCCCCC1 (stereo not drawn) [2-cyclooctyl-3-keto-N-(3-pyridylmethyl)isoindoline-1-carboxamide] |
| > 66.7 µM |  | CCC(SC1=Nc2ccccc2C2=NC(CC(C)C)C(=O)N12)C(=O)Nc1ccc2c(c1)OCO2 (stereo not drawn) [N-(1,3-benzodioxol-5-yl)-2-[[2-(2-methylpropyl)-3-oxo-2H-imidazo[1,2-c]quinazolin-5-yl]sulfanyl]butanamide] |
| 11.2 µM |  | CCOC(=O)CSc1nnc(CNC(=O)c2cc(OCC)c(OCC)c(OCC)c2)n1C [2-[[4-methyl-5-[[(3,4,5-triethoxybenzoyl)amino]methyl]-1,2,4-triazol-3-yl]thio]acetic acid ethyl ester] |
| > 66.7 µM |  | Cc1c(C)c2cc(Cl)c(O)c(CN3CCCCC3)c2oc1=O [6-chloranyl-3,4-dimethyl-7-oxidanyl-8-(piperidin-1-ylmethyl)chromen-2-one] |
| > 66.7 µM |  | CCCNC(=O)CS(=O)(=O)Cc1nc(-c2cccc(OC)c2)oc1C [2-[[2-(3-methoxyphenyl)-5-methyl-1,3-oxazol-4-yl]methylsulfonyl]-N-propyl-ethanamide] |
| > 66.7 µM | > 40.3 µM | COc1ccc(OC)c(C2C(C(=O)c3ccccc3)C(=O)C(=O)N2Cc2ccco2)c1 (stereo not drawn) [(4Z)-5-(2,5-dimethoxyphenyl)-1-(2-furanylmethyl)-4-[hydroxy(phenyl)methylidene]pyrrolidine-2,3-dione] |
| > 66.7 µM |  | COC(=O)C1=[N+]([O-])OC(C(=O)OC)C1c1c[nH]c2ccccc12 (stereo not drawn) [MLS000090094] |
| > 66.7 µM |  | CN(C)c1nc(N(C)C)nc(N(C)C)n1 [ALTRETAMINE] |

same assay, conditions: inactive by the depositor's call

| Compound | IC50 |
| --- | --- |
| Cc1[nH]n2c(=O)cc(-c3ccc([N+](=O)[O-])cc3)nc2c1-c1ccccc1 [MLS000547439] | 31.7 µM |
| COc1ccc(-c2cn3cccnc3n2)cc1NC(=O)CC(C)C [MLS000045943] | 45 µM |
